PubChem BioAssay (NCI)
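In this assay, cells in 96-well plates receive the compound at five concentrations for 48 hours. Endpoints are linearly interpolated between the surrounding concentrations. TGI: concentration producing complete growth inhibition.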

The compounds below were run on HOP-62 NSCLC (assay: DTP human tumour cell line panel, 48 h).

`Cc1nn(C(=O)c2ccc(Cl)cc2)c2c1C(c1ccccc1[N+](=O)[O-])SC(N)=N2` (stereo not drawn) and `C=CCc1cccc2cc(C(=O)Nc3ccccc3)c(=N)oc12` cannot be ordered by TGI: greater than 10 µM for the first, greater than 100 µM for the second.

What follows are compounds tested on HOP-92 NSCLC (assay: DTP human tumour cell line panel, 48 h).

First: CN(C)C(=S)/N=c1\ssc(=S)n1Cc1ccccc1
Second: CCN(CC)/C(Sc1ccccc1)=C(\C(Cl)=C(Cl)Cl)[N+](=O)[O-]
The TGI of the first is 4.8-fold lower: 7.63 µM for the first, 36.4 µM for the second.

`Cn1c(O)c(C=Nc2ccccc2[N+](=O)[O-])c(=O)n(C)c1=O` and `Cc1nn(C(=O)c2ccc(Cl)cc2)c2c1C(c1ccccc1[N+](=O)[O-])SC(N)=N2` (stereo not drawn) cannot be ordered by TGI: greater than 100 µM for the first, greater than 10 µM for the second.

`COc1cc(-c2cc(-c3ccccc3)nc(-c3c(OC)ccc4c(C)cc(=O)oc34)c2)cc(OC)c1OC` and `CCOC(=O)c1nc2ccccc2nc1NCc1cc(OC)c(OC)c(OC)c1` cannot be ordered by TGI: greater than 100 µM for the first, greater than 100 µM for the second.

`C[C@H](NC(=O)c1ccc(CNC(=O)/C=C/c2cccc(Oc3ccccc3)c2)cc1)c1ccccc1` and `Cc1cccc(CP(Cc2cccc(C)c2)CC2(Cp3c4ccccc4c4ccccc43)COC2)c1` cannot be ordered by TGI: greater than 100 µM for the first, greater than 100 µM for the second.

`Brc1cc(CCOC2CCCCO2)c(-c2sccc2CCOC2CCCCO2)s1` (stereo not drawn) and `O=C(CCc1ccc(O)c(O)c1)NCCc1cc(O)cc(O)c1` cannot be ordered by TGI: greater than 100 µM for the first, greater than 100 µM for the second.

`CC(C)=CCC/C(=C/CC/C(=C\CCc1ccoc1)C(=O)O)C(=O)O` and `C/C=C\C(CC(=O)NCCC1CN(S(=O)(=O)c2ccc(C)cc2)c2ccccc21)CC(=O)OC` (stereo not drawn) cannot be ordered by TGI: greater than 100 µM for the first, greater than 100 µM for the second.

`CCCCc1ccc(Nc2nc(SC)c3[nH]cnc3n2)cc1` and `COc1ccc(C(=O)c2sc(Nc3ccc(Cl)cc3)nc2N)cc1` cannot be ordered by TGI: greater than 100 µM for the first, greater than 63.5 µM for the second.

`COc1cc(OC)nc(-n2c(N)c(C#N)c3ccc([N+](=O)[O-])cc3c2=O)n1` and `CCOC(=O)c1cn2c(n1)sc1c(Cl)c(Cl)ccc12` cannot be ordered by TGI: greater than 100 µM for the first, greater than 100 µM for the second.

`COC(=O)c1sc(=S)sc1SCc1ccc(CSc2sc(=S)sc2C(=O)OC)cc1` and `C=CCc1cccc2cc(C(=O)Nc3ccccc3)c(=N)oc12` cannot be ordered by TGI: greater than 100 µM for the first, greater than 100 µM for the second.

Going from `CN1CCN(c2ncc3c(n2)sc2c(=O)n(-c4ccccc4)cnc23)CC1` to `CN(C)CCN(C)c1ccc2c(=O)n(CCN(C)C)c(=O)n3c4ccccc4c(=O)c1c23`, the TGI falls from greater than 100 µM to 1.82 µM.

`Cc1cn(C2CC(O)C(COC(=O)NCCC(F)(F)C(F)(F)C(F)(F)C(F)(F)F)O2)c(=O)[nH]c1=O` (stereo not drawn) and `CC(C)(C)OC(=O)N1CCC(C(=O)O)CC1` cannot be ordered by TGI: greater than 100 µM for the first, greater than 100 µM for the second.

These compounds were tested on SF-295 CNS (assay: DTP human tumour cell line panel, 48 h).

Compared with `CN(C)C(=S)/N=c1\ssc(=S)n1Cc1ccccc1`, `CCN(CC)/C(Sc1ccccc1)=C(\C(Cl)=C(Cl)Cl)[N+](=O)[O-]` is 5.9-fold higher in TGI: 6.29 µM for the first, 37.1 µM for the second.

First: Cn1c(O)c(C=Nc2ccccc2[N+](=O)[O-])c(=O)n(C)c1=O
Second: CN(C)CCN(C)c1ccc2c(=O)n(CCN(C)C)c(=O)n3c4ccccc4c(=O)c1c23
The TGI of the first is higher: greater than 100 µM for the first, 8.38 µM for the second.

`COc1cc(-c2cc(-c3ccccc3)nc(-c3c(OC)ccc4c(C)cc(=O)oc34)c2)cc(OC)c1OC` and `CCOC(=O)c1nc2ccccc2nc1NCc1cc(OC)c(OC)c(OC)c1` cannot be ordered by TGI: greater than 100 µM for the first, greater than 100 µM for the second.

`C[C@H](NC(=O)c1ccc(CNC(=O)/C=C/c2cccc(Oc3ccccc3)c2)cc1)c1ccccc1` and `Cc1cccc(CP(Cc2cccc(C)c2)CC2(Cp3c4ccccc4c4ccccc43)COC2)c1` cannot be ordered by TGI: greater than 100 µM for the first, greater than 100 µM for the second.

`Brc1cc(CCOC2CCCCO2)c(-c2sccc2CCOC2CCCCO2)s1` (stereo not drawn) and `CN1CCN(c2ncc3c(n2)sc2c(=O)n(-c4ccccc4)cnc23)CC1` cannot be ordered by TGI: greater than 100 µM for the first, greater than 100 µM for the second.

`CC(C)=CCC/C(=C/CC/C(=C\CCc1ccoc1)C(=O)O)C(=O)O` and `C/C=C\C(CC(=O)NCCC1CN(S(=O)(=O)c2ccc(C)cc2)c2ccccc21)CC(=O)OC` (stereo not drawn) cannot be ordered by TGI: greater than 100 µM for the first, greater than 100 µM for the second.

First: CCCCc1ccc(Nc2nc(SC)c3[nH]cnc3n2)cc1
Second: COc1ccc(C(=O)c2sc(Nc3ccc(Cl)cc3)nc2N)cc1
The TGI of the first is higher: greater than 100 µM for the first, 46.7 µM for the second.

`COc1cc(OC)nc(-n2c(N)c(C#N)c3ccc([N+](=O)[O-])cc3c2=O)n1` and `CCOC(=O)c1cn2c(n1)sc1c(Cl)c(Cl)ccc12` cannot be ordered by TGI: greater than 100 µM for the first, greater than 100 µM for the second.

`COC(=O)c1sc(=S)sc1SCc1ccc(CSc2sc(=S)sc2C(=O)OC)cc1` and `Cc1cn(C2CC(O)C(COC(=O)NCCC(F)(F)C(F)(F)C(F)(F)C(F)(F)F)O2)c(=O)[nH]c1=O` (stereo not drawn) cannot be ordered by TGI: greater than 100 µM for the first, greater than 100 µM for the second.

For `CC(C)(C)OC(=O)N1CCC(C(=O)O)CC1`, the TGI was greater than 100 µM.
